The record followed here is a melting point compilation (Tetko et al.; mined from patent text by program, amines drawn as free bases though some values may be those of a salt).

Usually melting point stands for the temperature of the solid-liquid transition. As for `Cc1ccc(OCC(O)CNC(C)(C)C)c([N+](=O)[O-])c1[N+](=O)[O-]` (stereo not given), the melting point lay within 104 to 106 °C.
In turn, `Fc1ccc(-c2cc(-c3cccs3)[nH]n2)cc1` came in with a melting point of 181 to 184 °C.
As for `O=C(O)CCC(Cc1ccccc1Br)(C(=O)C=Cc1ccc(Cl)cc1)c1ccccc1` (stereo not given), the melting point was 210 to 214 °C.
Consider `CNc1nc(N)nc(NC2CC2)n1`, for which the melting point lay within 159 to 162 °C.
For the compound `CN(C)S(=O)(=O)c1ccc2c(c1)S(=O)(=O)NC(C(F)(F)F)=N2`, the melting point fell in the range of 240 to 242 °C.
Regarding `CCCn1cc2c(C3C(=O)Nc4ccc(C#N)cc43)nc(NCc3ccncc3)nc2n1` (stereo not given), the melting point lay within 299 to 302 °C.
Regarding `O=C1CCCCN1C1=CC(CF)(CF)Oc2ccc(C(F)(F)C(F)(F)F)cc21`, the melting point fell in the range of 149 to 150 °C.
The compound `CC(=O)c1cc(C)n(CCO)n1` had a melting point of 78 to 79 °C.
Compound `N#CCN1c2ccc([N+](=O)[O-])cc2CS1(=O)=O` returned a melting point of 200 to 202 °C.
In turn, `Cn1ccnc1CCc1cc2c(cc1O)CCO2` gave a melting point of 190 to 191 °C.
Compound `COc1ccc(NC(=O)OC(C)(C)C)c(C)c1` had a melting point of 80 to 82 °C.
`COc1ccccc1N=C(C)CC(=O)C(F)(F)F` displayed a melting point of 40 °C.
`CCn1c(C)nc2cc(C(F)(F)F)c(Cl)c(N)c21` had a melting point of 176 to 178 °C.
Regarding `CCCN1CC(C)CC2c3cccc4[nH]c(SC)c(c34)CC21` (stereo not given), the melting point was in the range of 216 to 219 °C.
As for `COc1cc(C)c(C(=O)c2c(F)ncc(C)c2I)c(OC)c1OC`, the melting point was in the range of 140 to 141 °C.
Turning to `COc1c(C2CCN(CCCCNC(=O)c3cc(-c4ccc(C#N)cc4)nn3CCO)CC2)ccc2c1CCCC2`, the melting point came to 152 °C.
With `CCOC(=O)CCCNC(=O)c1cc(Br)no1` the figure was 72 to 73 °C.
For `CN(C)C=CC(=O)c1c(-c2ccc(F)cc2)nc2occn12`, the melting point lay within 187 to 189 °C.
`CCCC12COC(c3ccc(I)cc3)(OC1)SC2` showed a melting point of 128 to 132 °C.
With `CC(Cc1cc(F)cc2c(Cl)coc12)NC(=O)OC(C)(C)C` (stereo not given) the figure was 127 to 129 °C.
With `Cc1cccc2c1nc(-c1ccncc1)n2Cc1c(F)cccc1F` the figure was 171 to 172 °C; with `CCCCCCC(N)C(C)O` (stereo not given), 81 to 86 °C.
`Cc1cc2c(s1)Oc1ccccc1N=C2N1CC2CCC(C1)N2C` yielded a melting point of 156 to 159 °C.
For the compound `CC(C)[Si](C(C)C)(C(C)C)C1(CO)c2ccccc2-c2ccccc21`, the melting point was in the range of 106 to 108 °C.
`COc1ccc2[nH]cc(CCN3CCC(c4ccc(C)cc4)CC3)c2c1` gave a melting point of 131 to 133 °C.
The compound `O=C(OCc1ccccc1)c1ccc2[nH]ccc2c1` registered a melting point of 127 to 129 °C.
With `COC(=O)[C@H](Cc1ccc(OCCN2CCC(O)(c3ccccc3)CC2)cc1)NC(=O)[C@@H]1CCCN1S(=O)(=O)c1ccc(C)cc1`, the melting point lay in the range of 122 to 123 °C.
For `CC1(C)OCC(C(O)CNC(=O)c2cc(C(=O)NCC(O)C3COC(C)(C)O3)cc(S(=O)(=O)Nc3ccc(F)c(C(F)(F)F)c3)c2)O1` (stereo not given), the melting point is 217 to 218 °C.
In turn, `Cc1nn(-c2ccccn2)c(C)c1S(N)(=O)=O` returned a melting point of 160 to 163 °C.
The compound `CNNC(=O)Nc1ncnc2cc(OC)c(OC)cc12` gave a melting point of 246 to 247 °C.
With `O=[N+]([O-])c1cc(Br)ccc1-c1ccc(Br)cc1[N+](=O)[O-]` the figure was 143 to 146 °C.
`O=C1C2=C(CCCC2)C(=O)N1c1cc([N+](=O)[O-])c(Cl)cc1F` yielded a melting point of 152 to 155 °C.
Compound `Cn1ccnc1SCOC(=O)C(C)(C)C` registered a melting point of 128 to 132 °C.
In turn, `Nc1cc(N2CCNCC2)ccc1S(=O)(=O)c1ccc(F)cc1` showed a melting point of 144 to 146 °C.
As to `CC(C)(C)OC(=O)N(CC(=O)O)Cc1ccccc1`, the melting point is 94 to 97 °C.
In the case of `C[C@@H](O[Si](C)(C)C(C)(C)C)[C@@H]1C(=O)N[C@@H]1S(C)(=O)=O`, the melting point was 101 to 102 °C.
`Cn1nc(O[C@@H]2c3cc([N+](=O)[O-])ccc3OC(CF)(CF)[C@H]2O)ccc1=O` (relative stereo) showed a melting point of 226 to 228 °C.
To `CN(Cc1cccc2ccccc12)c1ncnc2c(N3CCOCC3)nc(N3CCC(N(C)C)CC3)nc12` belongs 146 to 148 °C; to `Cc1cn2ccnc(Cl)c2n1`, 128 to 130 °C.
As to `CC(C)(C#N)C1(c2ccc(Cl)cc2)CCC1`, the melting point lay within 73 to 75 °C.
Turning to `COCCCOc1ccc(/C=C/C(=O)O)c(Oc2ncc(C(F)(F)F)cc2Cl)c1`, the melting point was 131 to 133 °C.
In turn, `O=C(O)c1ccc(C(=C2CC3CCC(C2)N3CCc2ccccc2)c2ccccc2)cc1` yielded a melting point of 285 to 290 °C.
Compound `COc1cccc(OC)c1C(=O)NC1=NN=C(C(C)(C)C)CS1` showed a melting point of 175 to 177 °C.
With `CCC(=O)N1Cc2cnn(C)c2-c2cc(Cl)ccc21` the figure was 127 to 128 °C; with `Cc1ccc(-c2c3n(c(=O)c4ncccc24)CCN(Cc2cc(C(F)(F)F)cc(C(F)(F)F)c2)C3=O)cc1`, 270 to 271 °C; with `Oc1ccc(C#Cc2ccccc2)cc1`, 83 to 84 °C.
For `CCCS(=O)(=O)N1C[C@@H](C)C[C@H](Nc2ncccc2-c2cnc3[nH]ccc3n2)C1`, the melting point lay within 178 to 180 °C.
With `CCOCc1nc2c(N)nc3cc(OCc4cccc(C)c4)ccc3c2n1CC(C)(C)NS(C)(=O)=O` the figure was 252 to 254 °C; with `CCn1c(=O)ccc2cnc(Nc3ccc(-c4ccccc4)cc3)nc21`, 207 to 208 °C.
In turn, `O=P(CN(O)Cc1ccccc1)(OCc1ccccc1)OCc1ccccc1` showed a melting point of 62 to 64 °C.
As for `COc1ccc(C(=O)Cc2c(Cl)cncc2Cl)c2c1OCCCO2`, the melting point fell in the range of 150 to 151 °C.
In turn, `Cc1cc(-c2nc3cccnn3c2-c2ccnc(NC(=O)c3ccnc(Cl)c3)c2)ccc1F` gave a melting point of 224 to 225 °C.
`CCCCC(Cn1cncn1)(NC(C)=O)c1ccc(Cl)cc1` (stereo not given) came in with a melting point of 178 to 179 °C.
To `CCOC(=O)c1c(-c2ccc(F)cc2)c2ccccc2[nH]c1=O` belongs 204 to 206 °C; to `COC(=O)CC(Oc1c(Br)cc(-c2c3ccccc3c(Br)c3sc4ccccc4c23)cc1Br)C(=O)OC` (stereo not given), 118 to 121 °C; to `Cc1c(CO)sc2cc(Br)ccc12`, 95 to 96 °C.
As for `CCCN(CCC)CCc1ccc(OC)c2[nH]c(=O)[nH]c12`, the melting point amounted to 35 °C.
Take `COc1ccc(C(=O)C2=C(c3ccccc3)CCc3ccccc32)cc1`: the melting point lay within 106 to 107 °C.
Compound `Cc1ccc(S(=O)(=O)N(CCBr)c2ccc(Cl)cc2[N+](=O)[O-])cc1` gave a melting point of 70 to 72 °C.
The compound `CCCC1=C(c2cccc([N+](=O)[O-])c2)C(=NO)CC1` showed a melting point of 128 to 129 °C.
For the compound `CC1(C)OC(=O)N[C@@H]1c1ccccc1`, the melting point turned out to be 149 °C.
Compound `Nc1cccc2cc(-c3ccccn3)[nH]c12` came in with a melting point of 165 to 166 °C.
In turn, `CN1Cc2cccnc2N(c2cccc(Cl)c2)C1=O` returned a melting point of 139 to 140 °C.
Turning to `Nc1c2c(nc3ccccc13)CC(O)CC2O` (stereo not given), the melting point was in the range of 158 to 162 °C.
Take `COc1cccc(CNc2ncnc3c2sc2nc(N4CCCC4)c4c(c23)CC(C)(C)CC4)c1OC`: the melting point was in the range of 194 to 195 °C.
